The values that follow come from ChEMBL document CHEMBL4665787, “Bifunctional and Unusual Amino Acid β- or γ-Ester Prodrugs of Nucleoside Analogues for Improved Affinity to ATB and Enhanced Metabolic Stability: An Application to Floxuridine” (J Med Chem, 2020).

Data set [1] in a line: Half life of compound in PBS buffer at pH 7.4 at 200 uM by HPLC analysis. It counts as physicochemical.
The subject of the next data set is thymidine phosphorylase. Put plainly: Half life of compound in thymidine phosphorylase buffer at 300 uM by HPLC analysis. In kind it is physicochemical.
Data set [2] has as its target T1, Sodium- and chloride-dependent neutral and basic amino acid transporter B(0+) (Homo sapiens, UniProt Q9UN76).
T1 sequence (Q9UN76 whole entry): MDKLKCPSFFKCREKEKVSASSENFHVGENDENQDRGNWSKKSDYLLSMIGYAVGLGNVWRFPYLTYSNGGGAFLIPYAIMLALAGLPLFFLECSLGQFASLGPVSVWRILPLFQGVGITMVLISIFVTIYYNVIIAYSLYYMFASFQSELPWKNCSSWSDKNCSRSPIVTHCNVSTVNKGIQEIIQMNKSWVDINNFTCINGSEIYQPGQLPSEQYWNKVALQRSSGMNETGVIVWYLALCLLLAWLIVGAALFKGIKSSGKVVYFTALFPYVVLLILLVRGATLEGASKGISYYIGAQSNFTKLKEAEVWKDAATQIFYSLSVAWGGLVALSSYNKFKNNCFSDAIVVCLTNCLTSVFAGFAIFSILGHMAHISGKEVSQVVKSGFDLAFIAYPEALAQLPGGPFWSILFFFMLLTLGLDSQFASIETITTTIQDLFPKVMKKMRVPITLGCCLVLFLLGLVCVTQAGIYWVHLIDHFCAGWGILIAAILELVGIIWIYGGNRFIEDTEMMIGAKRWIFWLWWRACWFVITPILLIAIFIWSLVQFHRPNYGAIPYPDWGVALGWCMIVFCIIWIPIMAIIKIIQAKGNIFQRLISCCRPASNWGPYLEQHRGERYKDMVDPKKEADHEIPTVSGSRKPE
Put plainly: Substrate activity at SLC6A14 (unknown origin) expressed in Xenopus laevis oocytes assessed as inhibition of glycine uptake incubated for 10 mins by HPLC/MS/MS analysis. In kind it is cell-based, Oocyte.

Data set [3] has as its target T2, Sodium- and chloride-dependent neutral and basic amino acid transporter B(0+) (Homo sapiens) (UniProt Q9UN76).
T2 sequence (whole entry): T1 sequence (Q9UN76 whole entry)
Put plainly: Substrate activity at SLC6A14 (unknown origin) expressed in Xenopus laevis oocytes assessed as increase in ABT0+ mediated drug uptake at 1 mM in presence of Cl- ion by HPLC analysis. It counts as cell-based. Particulars: Oocyte.

Data set [4] can be described thus: AUC (0 to t) in NOD SCID nude mouse tumour xenografted with ZR-75-1 cells assessed as floxuridine; 5-fluoro-2-deoxyuridine AUC at 90 mg/kg, iv measured up to 24 hrs by HPLC-MS/MS analysis. It counts as ADME, organism-based, Neoplasm. Particulars: in vivo.
A short description of data set [5]: AUC (0 to t) in NOD SCID nude mouse plasma xenografted with ZR-75-1 cells at 90 mg/kg, iv measured up to 24 hrs by HPLC-MS/MS analysis. It counts as ADME, organism-based. The arrangement: route intravenous, dose 90 mg/kg, time <=24.
Data set [6] can be described thus: Toxicity in NOD SCID nude mouse xenografted with human ZR-75-1 cells assessed as body weight at 90 mg/kg, iv for 20 days (reference value: 29.2 +/- 2.5g). It counts as organism-based. Particulars: in vivo, 480 h, time 20 day.
Data set [7] is described as follows: Half life of compound in human MIA PaCa-2 cell homogenate. It counts as ADME, tissue-based.
Data set [8] deals with T3, Solute carrier family 15 member 1 (Homo sapiens, UniProt P46059).
T3 sequence (P46059 whole entry): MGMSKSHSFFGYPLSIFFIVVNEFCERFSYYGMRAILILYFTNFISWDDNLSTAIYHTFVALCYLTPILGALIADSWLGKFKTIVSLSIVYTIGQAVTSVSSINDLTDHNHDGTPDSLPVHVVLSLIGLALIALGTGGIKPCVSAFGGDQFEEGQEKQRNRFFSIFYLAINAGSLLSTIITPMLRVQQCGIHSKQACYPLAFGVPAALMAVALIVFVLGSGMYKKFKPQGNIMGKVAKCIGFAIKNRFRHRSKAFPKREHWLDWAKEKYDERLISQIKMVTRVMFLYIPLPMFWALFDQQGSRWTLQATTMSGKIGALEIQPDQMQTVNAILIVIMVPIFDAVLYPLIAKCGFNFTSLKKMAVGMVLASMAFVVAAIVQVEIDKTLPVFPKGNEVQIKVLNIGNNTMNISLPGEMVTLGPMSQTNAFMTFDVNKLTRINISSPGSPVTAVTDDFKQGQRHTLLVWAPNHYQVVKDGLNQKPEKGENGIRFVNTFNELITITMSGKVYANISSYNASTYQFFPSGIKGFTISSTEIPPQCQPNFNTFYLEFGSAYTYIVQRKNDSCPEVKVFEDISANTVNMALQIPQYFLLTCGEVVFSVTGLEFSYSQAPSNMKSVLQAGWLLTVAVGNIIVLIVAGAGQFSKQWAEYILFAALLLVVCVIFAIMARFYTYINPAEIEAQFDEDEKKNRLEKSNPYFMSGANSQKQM
Kind of data set: Substrate activity at PEPT1 (unknown origin) expressed in MDCK cells assessed as PEPT1 mediated drug uptake at 0.5 mM incubated for 10 mins by HPLC analysis. In kind it is ADME, cell-based. Particulars: 500 µM.

Data set [9] in a line: Half life of compound in human MDA-MB-231 cell homogenate. It counts as ADME, tissue-based.
The nature of data set [10]: Drug uptake in Xenopus laevis oocytes at 0.5 mM incubated for 10 mins by HPLC analysis. In kind it is ADME, cell-based. Particulars: oocyte, 500 µM.
The target in data set [11] is T2, Sodium- and chloride-dependent neutral and basic amino acid transporter B(0+) (Homo sapiens). Kind of data set: Substrate activity at SLC6A14 (unknown origin) expressed in Xenopus laevis oocytes assessed as increase in ABT0+ mediated drug uptake at 1 mM in presence of Na+ ion by HPLC analysis. It counts as cell-based. Particulars: Oocyte.
Another data set has as its system MDA-MB-231. Put plainly: Potency index, ratio of FUdR GI50 to test compound GI50 for growth inhibition of human MDA-MB-231 cells. In kind it is functional.
The nature of data set [12]: Half life in rat plasma at 200 uM measured up to 120 mins by HPLC-MS/MS analysis. In kind it is ADME, cell-free.
A short description of data set [13]: Toxicity in NOD SCID nude mouse xenografted with human MDA-MB-231 cells assessed as body weight at 90 mg/kg, iv for 20 days (reference value: 30.1 +/- 4.1g). Particulars: in vivo, 480 h, time 20 day. It counts as organism-based.
Data set [14] can be described thus: Cmax in NOD SCID nude mouse plasma xenografted with ZR-75-1 cells assessed as floxuridine; 5-fluoro-2-deoxyuridine concentration at 90 mg/kg, iv measured up to 24 hrs by HPLC-MS/MS analysis. It counts as ADME, organism-based. Further details: route intravenous, dose 90 mg/kg, time <=24. Particulars: in vivo.
Data set [15] can be described thus: Half life of compound in human ZR-75-1 cell homogenate. In kind it is ADME, tissue-based.
Data set [16] in a line: Selectivity ratio of substrate activity at PEPT1 (unknown origin) expressed in MDCK cells assessed as PEPT1 mediated drug uptake to drug uptake in MDCK cells.
The nature of data set [17]: AUC (0 to t) in NOD SCID nude mouse plasma xenografted with ZR-75-1 cells assessed as floxuridine; 5-fluoro-2-deoxyuridine AUC at 90 mg/kg, iv measured up to 24 hrs by HPLC-MS/MS analysis. It counts as ADME, organism-based. The arrangement: route intravenous, dose 90 mg/kg, time <=24. Particulars: in vivo.
Data set [18] can be described thus: Drug uptake in MDCK cells incubated for 10 mins by HPLC analysis. It counts as ADME, cell-based, Canis lupus familiaris. Particulars: dog, 500 µM, dose 0.5 mM.
The nature of data set [19]: Ratio of AUC (0 to t) in NOD SCID nude mouse plasma xenografted with ZR-75-1 cells to AUC (0 to t) in NOD SCID mouse tumour xenografted with ZR-75-1 cells. It counts as ADME, cell-free, Tumor/Plasma.

Activity calls are given as the source filed them. The rule behind the calls is not given here.

For the compound `N[C@@H](CC(=O)OC[C@H]1O[C@@H](n2cc(F)c(=O)[nH]c2=O)C[C@@H]1O)C(=O)O`, the half-life at 200 µM in [1] amounted to 4.77 h; in data set [12], 2.49 h. This compound also returned a half-life at 300 µM with thymidine phosphorylase of 4.98 h. In data set [2], the IC50 came out at 820 µM. The outcome in data set [3] and in data set [11] was Active. The AUCt in [4] was 4600.1 ng·h/g. The same compound came in with an AUC(0-t) at 24 h in data set [5] of 5070 ng·h/mL. The Activity in data set [6] stood at 26.8 g; in data set [13], 27.6 g. Moreover, the results for the half-life in [7], in [9] and in data set [15] were 0.273 h, 0.185 h and 0.223 h, respectively. For the same compound, the Drug uptake is less than 0.04 nmol/mg/min in data set [8], 0.32 nmol/mg/min in [10] and less than 0.04 nmol/mg/min in [18]. Moreover, the RatioGI50 with MDA-MB-231 worked out at 7. For the same compound, in data set [14], the Cmax worked out at 145.9 ng/mL. Besides, the Ratio in data set [16] is 1; in [19], 3.9. In addition, the AUC in data set [17] turned out to be 1172.9 ng·h/mL.
